Results taken from ChEMBL document CHEMBL3871268, “Chalcogen containing heterocyclic scaffolds: New hybrids with antitumoral activity” (Eur J Med Chem, 2016).

How the values were obtained:
[1] = Cell cycle arrest in human MCF7 cells assessed as sub-diploid cells at 18 uM measured after 48 hrs by propidium iodide staining-based flow cytometry (reference value: 1.9%); format: functional
[2] = Cell cycle analysis in human MCF7 cells assessed as accumulation at G0/G1 phase at 5 uM measured after 24 hrs by propidium iodide staining-based flow cytometry (reference value: 73.6%); format: functional
[3] = Cell cycle arrest in human MCF7 cells assessed as M1 quadrant cells at 18 uM pretreated with autophagy inhibitor wortmannin for 1 hr followed by compound addition measured after 48 hrs by propidium iodide staining-based flow cytometry assay (reference value: 98.1%); format: functional; set-up: scale not given: the % may be the effect or the level left
[4] = Cell cycle analysis in human MCF7 cells assessed as accumulation at SubG1 phase at 25 uM measured after 24 hrs by propidium iodide staining-based flow cytometry (reference value: 2.6%); format: functional
[5] = Cytotoxicity against human PC3 cells assessed as reduction in cell viability measured after 72 hrs by MTT assay; format: functional; conditions: PC-3, 72 h
[6] = Cell cycle analysis in human MCF7 cells assessed as accumulation at G0/G1 phase at 1 uM measured after 24 hrs by propidium iodide staining-based flow cytometry (reference value: 73.6%); format: functional
[7] = Cell cycle analysis in human MCF7 cells assessed as accumulation at G0/G1 phase at 25 uM measured after 24 hrs by propidium iodide staining-based flow cytometry (reference value: 73.6%); format: functional
[8] = Cell cycle analysis in human MCF7 cells assessed as accumulation at G2/M phase at 18 uM measured after 24 hrs by propidium iodide staining-based flow cytometry (reference value: 8.9%); format: functional
[9] = Cell cycle analysis in human MCF7 cells assessed as accumulation at S phase at 1 uM measured after 24 hrs by propidium iodide staining-based flow cytometry (reference value: 15.3%); format: functional
MCF7 = test: Selectivity index, ratio of GI50 for human 184B5 cells to GI50 for human MCF7 cells; format: functional
[10] = Cytotoxicity against human MCF7 cells assessed as reduction in cell viability measured after 72 hrs by MTT assay; format: functional; conditions: MCF7, 72 h
[11] = Cytotoxicity against human 184B5 cells assessed as reduction in cell viability measured after 72 hrs by MTT assay; format: toxicity, cell-based; conditions: for GI50 at 72 h: 184B5 cells; for LC50 / TGI: 184b5, 72 h
[12] = Cell cycle arrest in human MCF7 cells assessed as M1 quadrant cells at 18 uM measured after 48 hrs by propidium iodide staining-based flow cytometry (reference value: 98.1%); format: functional
[13] = Cell cycle analysis in human MCF7 cells assessed as accumulation at SubG1 phase at 10 uM measured after 24 hrs by propidium iodide staining-based flow cytometry (reference value: 2.6%); format: functional
[14] = Cell cycle analysis in human MCF7 cells assessed as accumulation at S phase at 18 uM measured after 24 hrs by propidium iodide staining-based flow cytometry (reference value: 15.3%); format: functional
[15] = Cell cycle analysis in human MCF7 cells assessed as accumulation at S phase at 5 uM measured after 24 hrs by propidium iodide staining-based flow cytometry (reference value: 15.3%); format: functional
[16] = Cell cycle arrest in human MCF7 cells assessed as increase in subdiploid cells at 18 uM after 48 hrs by TUNEL based flow cytometry assay; format: functional
[17] = Cell cycle arrest in human MCF7 cells assessed as M1 quadrant cells at 18 uM pretreated with pan-caspase inhibitor Z-VAD-FMK for 1 hr followed by compound addition measured after 48 hrs by propidium iodide staining-based flow cytometry assay (reference value: 98.1%); format: functional; set-up: scale not given: the % may be the effect or the level left
[18] = Cell cycle analysis in human MCF7 cells assessed as accumulation at S phase at 10 uM measured after 24 hrs by propidium iodide staining-based flow cytometry (reference value: 15.3%); format: functional
[19] = Cell cycle analysis in human MCF7 cells assessed as accumulation at G0/G1 phase at 18 uM measured after 24 hrs by propidium iodide staining-based flow cytometry (reference value: 73.6%); format: functional
[20] = Cell cycle analysis in human MCF7 cells assessed as accumulation at G2/M phase at 5 uM measured after 24 hrs by propidium iodide staining-based flow cytometry (reference value: 8.9%); format: functional
[21] = Cell cycle analysis in human MCF7 cells assessed as accumulation at S phase at 25 uM measured after 24 hrs by propidium iodide staining-based flow cytometry (reference value: 15.3%); format: functional
[22] = Cell cycle analysis in human MCF7 cells assessed as accumulation at SubG1 phase at 5 uM measured after 24 hrs by propidium iodide staining-based flow cytometry (reference value: 2.6%); format: functional
[23] = Cell cycle analysis in human MCF7 cells assessed as accumulation at G2/M phase at 1 uM measured after 24 hrs by propidium iodide staining-based flow cytometry (reference value: 8.9%); format: functional
[24] = Cell cycle analysis in human MCF7 cells assessed as accumulation at G0/G1 phase at 10 uM measured after 24 hrs by propidium iodide staining-based flow cytometry (reference value: 73.6%); format: functional
[25] = Cell cycle analysis in human MCF7 cells assessed as accumulation at SubG1 phase at 1 uM measured after 24 hrs by propidium iodide staining-based flow cytometry (reference value: 2.6%); format: functional
[26] = Cell cycle analysis in human MCF7 cells assessed as accumulation at SubG1 phase at 18 uM measured after 24 hrs by propidium iodide staining-based flow cytometry (reference value: 2.6%); format: functional
[27] = Cell cycle arrest in human MCF7 cells assessed as sub-diploid cells at 18 uM pretreated with autophagy inhibitor wortmannin for 1 hr followed by compound addition measured after 48 hrs by propidium iodide staining-based flow cytometry assay (reference value: 1.9%); format: functional; set-up: scale not given: the % may be the effect or the level left
[28] = Cell cycle analysis in human MCF7 cells assessed as accumulation at G2/M phase at 25 uM measured after 24 hrs by propidium iodide staining-based flow cytometry (reference value: 8.9%); format: functional
[29] = Cell cycle arrest in human MCF7 cells assessed as sub-diploid cells at 18 uM pretreated with pan-caspase inhibitor Z-VAD-FMK for 1 hr followed by compound addition measured after 48 hrs by propidium iodide staining-based flow cytometry assay (reference value: 1.9%); format: functional; set-up: scale not given: the % may be the effect or the level left
[30] = Cell cycle analysis in human MCF7 cells assessed as accumulation at G2/M phase at 10 uM measured after 24 hrs by propidium iodide staining-based flow cytometry (reference value: 8.9%); format: functional
[31] = Cell cycle analysis in human MCF7 cells assessed as accumulation at G0/G1 phase at 50 uM measured after 8 hrs by propidium iodide staining-based flow cytometry (reference value: 72.1%); format: functional
[32] = Cell cycle analysis in human MCF7 cells assessed as accumulation at G2/M phase at 50 uM measured after 16 hrs by propidium iodide staining-based flow cytometry (reference value: 8.5%); format: functional
[33] = Cell cycle analysis in human MCF7 cells assessed as accumulation at G0/G1 phase at 50 uM measured after 16 hrs by propidium iodide staining-based flow cytometry (reference value: 72.1%); format: functional
[34] = Cell cycle arrest in human MCF7 cells assessed as M1 quadrant cells at 50 uM pretreated with pan-caspase inhibitor Z-VAD-FMK for 1 hr followed by compound addition measured after 48 hrs by propidium iodide staining-based flow cytometry assay (reference value: 98.1%); format: functional; set-up: scale not given: the % may be the effect or the level left
[35] = Cell cycle arrest in human MCF7 cells assessed as M1 quadrant cells at 50 uM pretreated with autophagy inhibitor wortmannin for 1 hr followed by compound addition measured after 48 hrs by propidium iodide staining-based flow cytometry assay (reference value: 98.1%); format: functional; set-up: scale not given: the % may be the effect or the level left
[36] = Cell cycle analysis in human MCF7 cells assessed as accumulation at S phase at 50 uM measured after 24 hrs by propidium iodide staining-based flow cytometry (reference value: 13.2%); format: functional
[37] = Cell cycle analysis in human MCF7 cells assessed as accumulation at SubG1 phase at 50 uM measured after 48 hrs by propidium iodide staining-based flow cytometry (reference value: 5.6%); format: functional
[38] = Cell cycle analysis in human MCF7 cells assessed as accumulation at SubG1 phase at 50 uM measured after 16 hrs by propidium iodide staining-based flow cytometry (reference value: 5.6%); format: functional
[39] = Cell cycle analysis in human MCF7 cells assessed as accumulation at S phase at 50 uM measured after 8 hrs by propidium iodide staining-based flow cytometry (reference value: 13.2%); format: functional
[40] = Cell cycle analysis in human MCF7 cells assessed as accumulation at G0/G1 phase at 50 uM measured after 48 hrs by propidium iodide staining-based flow cytometry (reference value: 72.1%); format: functional
[41] = Cell cycle analysis in human MCF7 cells assessed as accumulation at G0/G1 phase at 50 uM measured after 24 hrs by propidium iodide staining-based flow cytometry (reference value: 72.1%); format: functional
[42] = Cell cycle arrest in human MCF7 cells assessed as sub-diploid cells at 50 uM pretreated with pan-caspase inhibitor Z-VAD-FMK for 1 hr followed by compound addition measured after 48 hrs by propidium iodide staining-based flow cytometry assay (reference value: 1.9%); format: functional; set-up: scale not given: the % may be the effect or the level left
[43] = Cell cycle analysis in human MCF7 cells assessed as accumulation at S phase at 50 uM measured after 48 hrs by propidium iodide staining-based flow cytometry (reference value: 13.2%); format: functional
[44] = Cell cycle analysis in human MCF7 cells assessed as accumulation at G2/M phase at 50 uM measured after 4 hrs by propidium iodide staining-based flow cytometry (reference value: 8.5%); format: functional
[45] = Cell cycle analysis in human MCF7 cells assessed as accumulation at SubG1 phase at 50 uM measured after 8 hrs by propidium iodide staining-based flow cytometry (reference value: 5.6%); format: functional
[46] = Cell cycle analysis in human MCF7 cells assessed as accumulation at G2/M phase at 50 uM measured after 8 hrs by propidium iodide staining-based flow cytometry (reference value: 8.5%); format: functional
[47] = Cell cycle arrest in human MCF7 cells assessed as M1 quadrant cells at 50 uM measured after 48 hrs by propidium iodide staining-based flow cytometry (reference value: 98.1%); format: functional
[48] = Cell cycle analysis in human MCF7 cells assessed as accumulation at SubG1 phase at 50 uM measured after 4 hrs by propidium iodide staining-based flow cytometry (reference value: 5.6%); format: functional
[49] = Cell cycle arrest in human MCF7 cells assessed as sub-diploid cells at 50 uM pretreated with autophagy inhibitor wortmannin for 1 hr followed by compound addition measured after 48 hrs by propidium iodide staining-based flow cytometry assay (reference value: 1.9%); format: functional; set-up: scale not given: the % may be the effect or the level left
[50] = Cell cycle analysis in human MCF7 cells assessed as accumulation at SubG1 phase at 50 uM by propidium iodide staining-based flow cytometry; format: functional; conditions: TDE = time-dependent effect
[51] = Cell cycle analysis in human MCF7 cells assessed as accumulation at G2/M phase at 50 uM measured after 24 hrs by propidium iodide staining-based flow cytometry (reference value: 8.5%); format: functional
[52] = Cell cycle arrest in human MCF7 cells assessed as sub-diploid cells at 50 uM measured after 48 hrs by propidium iodide staining-based flow cytometry (reference value: 1.9%); format: functional
[53] = Cell cycle analysis in human MCF7 cells assessed as accumulation at G2/M phase at 50 uM measured after 48 hrs by propidium iodide staining-based flow cytometry (reference value: 8.5%); format: functional
[54] = Cell cycle analysis in human MCF7 cells assessed as accumulation at SubG1 phase at 50 uM measured after 24 hrs by propidium iodide staining-based flow cytometry (reference value: 5.6%); format: functional
[55] = Cell cycle analysis in human MCF7 cells assessed as accumulation at S phase at 50 uM measured after 16 hrs by propidium iodide staining-based flow cytometry (reference value: 13.2%); format: functional
[56] = Cell cycle analysis in human MCF7 cells assessed as accumulation at G0/G1 phase at 50 uM measured after 4 hrs by propidium iodide staining-based flow cytometry (reference value: 72.1%); format: functional
[57] = Cell cycle analysis in human MCF7 cells assessed as accumulation at S phase at 50 uM measured after 4 hrs by propidium iodide staining-based flow cytometry (reference value: 13.2%); format: functional

Cc1noc(C)c1CSC#N
Activity [1]: 53.7%
Activity [2]: 68.1%
Activity [3]: 49.6%
Activity [4]: 4.4%
GI50 [5]: 8 µM
LC50 (concentration lethal to 50% of cells) [5]: 21.9 µM
TGI [5]: 13.8 µM
Activity [6]: 67.6%
Activity [7]: 54.6%
Activity [8]: 66.1%
Activity [9]: 22.2%
RatioGI50 (MCF7): 9.6
GI50 [10]: 4.8 µM
LC50 [10]: 84.9 µM
TGI [10]: 44.6 µM
GI50 at 72 h [11]: 46.2 µM
LC50 [11]: 99.5 µM
TGI [11]: 74.2 µM
Activity [12]: 46%
Activity [13]: 3.4%
Activity [14]: 9.9%
Activity [15]: 14.9%
Activity [16]: > 60%
Activity [17]: 80.9%
Activity [18]: 11.6%
Activity [19]: 18.4%
Activity [20]: 13.2%
Activity [21]: 16.3%
Activity [22]: 3.3%
Activity [23]: 8.9%
Activity [24]: 33.8%
Activity [25]: 2%
Activity [26]: 5.7%
Activity [27]: 50.4%
Activity [28]: 25.8%
Activity [29]: 19.1%
Activity [30]: 51.8%

N#C[Se]Cc1ccc(-n2cccc2)cc1
Activity [31]: 61.4%
Activity [32]: 17.2%
Activity [33]: 53.7%
Activity [34]: 81.7%
Activity [35]: 69.2%
Activity [36]: 17.2%
Activity [37]: 25.2%
Activity [38]: 9.4%
GI50 [5]: 59.9 µM
LC50 (concentration lethal to 50% of cells) [5]: > 100 µM
TGI [5]: > 100 µM
Activity [39]: 17.8%
Activity [40]: 53.6%
Activity [41]: 55.7%
Activity [42]: 18.2%
Activity [43]: 9.1%
Activity [44]: 18.7%
RatioGI50 (MCF7): >41.8
GI50 [10]: 2.4 µM
LC50 [10]: > 100 µM
TGI [10]: > 100 µM
Activity [45]: 2.9%
Activity [46]: 18.4%
GI50 at 72 h [11]: > 100 µM
LC50 [11]: > 100 µM
TGI [11]: > 100 µM
Activity [47]: 67.8%
Activity [48]: 2.2%
Activity [49]: 30.8%
Activity [50]: Tde
Activity [51]: 14%
Activity [52]: 32.2%
Activity [53]: 10.3%
Activity [54]: 13.1%
Activity [55]: 17.6%
Activity [56]: 59.6%
Activity [57]: 19.3%
